Source: patent US8461160B2, “Dihydropyrimidinones” (Hoffmann-La Roche, Inc., priority 2009, dated 2013)

Biological target: T1, BACE2 (Homo sapiens, UniProt Q9Y5Z0)
T1 construct: BACE2 enzyme ectodomain (derived from plasmid “pET17b-T7-hu proBACE2”) was prepared as described in Ostermann et al; T7 tag (N); made in house
T1 sequence (Q9Y5Z0 21-473 limits assumed): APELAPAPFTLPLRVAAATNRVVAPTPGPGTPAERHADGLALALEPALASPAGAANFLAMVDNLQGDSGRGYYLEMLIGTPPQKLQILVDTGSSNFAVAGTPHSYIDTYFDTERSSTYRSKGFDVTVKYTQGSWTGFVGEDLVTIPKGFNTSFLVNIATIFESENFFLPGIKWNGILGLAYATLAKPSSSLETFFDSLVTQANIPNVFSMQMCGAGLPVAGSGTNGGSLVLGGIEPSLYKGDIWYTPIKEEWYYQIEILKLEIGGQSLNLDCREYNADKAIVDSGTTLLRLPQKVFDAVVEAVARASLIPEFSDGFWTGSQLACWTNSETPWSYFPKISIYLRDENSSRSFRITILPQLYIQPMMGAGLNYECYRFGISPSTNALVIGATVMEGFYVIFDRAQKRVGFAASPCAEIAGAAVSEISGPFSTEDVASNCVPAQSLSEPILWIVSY
Test: Fluorescent-peptide cleavage assay for BACE2 inhibition
Assay type: biochemical
Conditions: BACE2 enzyme ectodomain, fluorescent peptide WS EVNLD AEFRC-MR121, assay buffer pH 4.5, room temperature
How it was run: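 Pro-enzyme BACE2 was activated at 80 nM for 1 h at room temperature in 100 mM Na-acetate, 20 mM EDTA, 0.05% BSA, pH 4.5, then preincubated 10 min with compound. IC50 from sigmoidal dose-response fit.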

Compound | IC50 [nM]
Cc1cc(Cl)cnc1C(=O)Nc1cccc([C@]2(C)CC(=O)N(C)C(N)=N2)c1 [Example 75, 5-Chloro-3-methyl-pyridine-2-carboxylic acid [3-((S)-2-amino-1,4-dimethyl-6-oxo-1,4,5,6-tetrahydro-pyrimidin-4-yl)-phenyl]-amide] | 17
CN1C(=O)C[C@@](C)(c2cccc(NC(=O)c3ccc(-n4ccc(C(F)(F)F)n4)cn3)c2)N=C1N [Example 76, 5-(3-Trifluoromethyl-pyrazol-1-yl)-pyridine-2-carboxylic acid [3-((S)-2-amino-1,4-dimethyl-6-oxo-1,4,5,6-tetrahydro-pyrimidin-4-yl)-phenyl]-amide] | 300
Cc1nn(C)cc1C(=O)Nc1cccc([C@]2(C)CC(=O)N(C)C(N)=N2)c1 [Example 77, 1,3-Dimethyl-1H-pyrazole-4-carboxylic acid [3-((S)-2-amino-1,4-dimethyl-6-oxo-1,4,5,6-tetrahydro-pyrimidin-4-yl)-phenyl]-amide] | 1580
CN1C(=O)C[C@@](C)(c2cccc(NC(=O)c3cc4cccnc4[nH]3)c2)N=C1N [Example 78, 1H-Pyrrolo[2,3-b]pyridine-2-carboxylic acid [3-((S)-2-amino-1,4-dimethyl-6-oxo-1,4,5,6-tetrahydro-pyrimidin-4-yl)-phenyl]-amide] | 800
Cc1cc(C(=O)Nc2cccc([C@]3(C)CC(=O)N(C)C(N)=N3)c2)n(C2CC2)n1 [Example 79, 2-Cyclopropyl-5-methyl-2H-pyrazole-3-carboxylic acid [3-((S)-2-amino-1,4-dimethyl-6-oxo-1,4,5,6-tetrahydro-pyrimidin-4-yl)-phenyl]-amide] | 190
CN1C(=O)C[C@@](C)(c2cccc(NC(=O)c3ccccc3-c3ncc[nH]3)c2)N=C1N [Example 80, N-[3-((S)-2-Amino-1,4-dimethyl-6-oxo-1,4,5,6-tetrahydro-pyrimidin-4-yl)-phenyl]-2-(1H-imidazol-2-yl)-benzamide] | 2100
CN1C(=O)C[C@@](C)(c2cccc(NC(=O)c3ccon3)c2)N=C1N [Example 81, Isoxazole-3-carboxylic acid [3-((S)-2-amino-1,4-dimethyl-6-oxo-1,4,5,6-tetrahydro-pyrimidin-4-yl)-phenyl]-amide] | 170
Cc1cc(C(=O)Nc2cccc([C@]3(C)CC(=O)N(C)C(N)=N3)c2)no1 [Example 82, 5-Methyl-isoxazole-3-carboxylic acid [3-((S)-2-amino-1,4-dimethyl-6-oxo-1,4,5,6-tetrahydro-pyrimidin-4-yl)-phenyl]-amide] | 590
CCc1ccc(C(=O)Nc2cccc([C@]3(C)CC(=O)N(C)C(N)=N3)c2)nc1 [Example 83, 5-Ethyl-pyridine-2-carboxylic acid [3-((S)-2-amino-1,4-dimethyl-6-oxo-1,4,5,6-tetrahydro-pyrimidin-4-yl)-phenyl]-amide] | 40
Cc1cnc(C(=O)Nc2cccc([C@]3(C)CC(=O)N(C)C(N)=N3)c2)[nH]1 [Example 84, 4-Methyl-1H-imidazole-2-carboxylic acid [3-((S)-2-amino-1,4-dimethyl-6-oxo-1,4,5,6-tetrahydro-pyrimidin-4-yl)-phenyl]-amide] | 390
CC[C@@]1(c2cccc(NC(=O)c3ccc(F)cn3)c2)CC(=O)N(C)C(N)=N1 [Example 85, 5-Fluoro-pyridine-2-carboxylic acid [3-((S)-2-amino-4-ethyl-1-methyl-6-oxo-1,4,5,6-tetrahydro-pyrimidin-4-yl)-phenyl]-amide] | 300
CC[C@@]1(c2cccc(NC(=O)c3ccc(C(F)(F)F)cn3)c2)CC(=O)N(C)C(N)=N1 [Example 86, 5-Trifluoromethyl-pyridine-2-carboxylic acid [3-((S)-2-amino-4-ethyl-1-methyl-6-oxo-1,4,5,6-tetrahydro-pyrimidin-4-yl)-phenyl]amide] | 250
